Data set [1] has as its system Trichomonas vaginalis. Briefly: In vitro studies against Trichomonas vaginalis. In kind it is cell-based. The following applies: for MIC: in vitro, Trichomonas vaginalis, read-out: Minimum Inhibitory Concentration.
In the next data set the test system is HBV. Briefly: Antiviral activity against HBV replication in cultures of 2.2.15 cells. In kind it is cell-based. The following applies: for selective index SI: HBV, CC 50/EC 50; for EC50: Hepatitis B virus, 216 h, read-out: effective concentration (EC 50). How it is done: (§1) The protocol for essaying anti-HBV compounds in cultures of 2.2.15 cells can be briefly summarized as follows (Korba and Milman, 1991, Antiviral Res. 217:217) : • * Chronically HBV-producing human liver cells (Acs, et al, 1987, PNAS 84:4641) are seeded into 24 well tissue culture plates and grown to confluence. • * Test compounds are then added daily for a continuous 9 day period. Culture medium (changed daily during the treatment period) is collected and stored for analysis of extracellular (virion) HBV DNA after 0,3,6 and 9 days of treatment. • * Treated cells are lysed 24 hours following day 9 of treatment for the analysis of intracellular HBV genomic forms. • * HBV DNA is then analyzed in a quantitative and qualitative manner for overall levels of HBV DNA (both extracellular and intracellular DNA) and the relative rate of HBV replication (intracellular DNA). The protocol for determining toxicity of compounds in cultures of 2.2.15 cells can be briefly summarized as follows (Korba and Gerin, submited for publication) : • * 2.2.15 cells were grown to confluence in 96 well fat-bottomed tissue culture plates and treated with compounds (in 0.2 ml culture medium/well) as described above. Four concentrations of each compound were assayed, each in triplicate cultures, 3 to 10-fold steps. • * Untreated control cultures were maintained on each 96 well plate.

Data set [2] can be described thus: Toxicity in cultures of 2.2.15 cells, neutral red dye uptake. The data set is classed as cell-based. As to conditions: human, 50 % inhibit of cell proliferation, read-out: cytotoxic concentration (CC 50). The procedure:
as §1

Data set [3] concerns Trichomonas vaginalis. Briefly: Activity of aqueous compositions on protozoa. As to conditions: aqueous composition (100 g) containing 10 g active agent.
Source text: (§2) Aqueous compositions (100 g) containing 10 g of an active agent have been prepared.
A further data set has as its system Trichomonas intestinalis. The data set is described as follows: Activity of aqueous compositions on protozoa. The following applies: aqueous composition (100 g) containing 10 g active agent.
The test system of the next data set is Encamoeba histolytica. Briefly: Activity of aqueous compositions on protozoa. As to conditions: aqueous composition (100 g) containing 10 g active agent.
The subject of another data set is Encamoeba dispar. The data set is described as follows: Activity of aqueous compositions on protozoa. As to conditions: aqueous composition (100 g) containing 10 g active agent.
The test system of another data set is Entamoeba coli. Briefly: Activity of aqueous compositions on protozoa. The following applies: aqueous composition (100 g) containing 10 g active agent.
A further data set concerns Endolimax nana. Briefly: Activity of aqueous compositions on protozoa. As to conditions: aqueous composition (100 g) containing 10 g active agent.
The next data set concerns Balancidium coli. Briefly: Activity of aqueous compositions on protozoa. As to conditions: aqueous composition (100 g) containing 10 g active agent.
For a further data set, the system named is Diencamoeba fragilis. The data set is described as follows: Activity of aqueous compositions on protozoa. The following applies: aqueous composition (100 g) containing 10 g active agent.
In another data set the test system is Giarda lamblia. The data set is described as follows: Activity of aqueous compositions on protozoa. As to conditions: aqueous composition (100 g) containing 10 g active agent.
The next data set relates to Cryptosporidium parvum. Briefly: Activity of aqueous compositions on protozoa. The following applies: aqueous composition (100 g) containing 10 g active agent.
In another data set the test system is Bladtocystis hominis. The data set is described as follows: Activity of aqueous compositions on protozoa. As to conditions: aqueous composition (100 g) containing 10 g active agent.
The test system of the next data set is Enterocytozoon bieneusi. The data set is described as follows: Activity of aqueous compositions on protozoa. The following applies: aqueous composition (100 g) containing 10 g active agent.
In the next data set the test system is Septata intestinalis. The data set is described as follows: Activity of aqueous compositions on protozoa. The following applies: aqueous composition (100 g) containing 10 g active agent.
Data set [4] relates to Strongyloïdes stercoralis. Briefly: Activity of aqueous compositions on helminths. The following applies: aqueous composition (100 g) containing 10 g active agent.
Source text: as §2
For a further data set, the system named is Taenia saginata. Briefly: Activity of aqueous compositions on helminths. The following applies: aqueous composition (100 g) containing 10 g active agent.
In a further data set the test system is Taenia solium. The data set is described as follows: Activity of aqueous compositions on helminths. The following applies: aqueous composition (100 g) containing 10 g active agent.
The subject of another data set is Hymenolepis nana. Briefly: Activity of aqueous compositions on helminths. As to conditions: aqueous composition (100 g) containing 10 g active agent.
In a further data set the test system is Staphylococcus aureus. Briefly: Activity of aqueous compositions on aerobic bacteria. The following applies: aqueous composition (100 g) containing 10 g active agent.
In another data set the test system is Escherichia coli. Described as above. As to conditions: aqueous composition (100 g) containing 10 g active agent.
The test system of another data set is Protens vulgaris. The data set is described as above. The following applies: aqueous composition (100 g) containing 10 g active agent.
The test system of a further data set is Bacceroides species. Briefly: Activity of aqueous compositions on anaerobic bacteria. As to conditions: aqueous composition (100 g) containing 10 g active agent.
In the next data set the test system is Peptococcus species. Described as above. As to conditions: aqueous composition (100 g) containing 10 g active agent.
Another data set concerns Peptostreptococcus SPP. Described as above. The following applies: aqueous composition (100 g) containing 10 g active agent.
For the next data set, the system named is Fusobacterium SPP. Described as above. The following applies: aqueous composition (100 g) containing 10 g active agent.
The next data set relates to Candida Albicans. The data set is described as follows: Activity of aqueous compositions on fungus. The following applies: aqueous composition (100 g) containing 10 g active agent.
The next data set deals with Clostridum species. The data set is described as follows: Activity of aqueous compositions on anaerobic bacteria. The following applies: aqueous composition (100 g) containing 10 g active agent.
The test system of the next data set is Isospora belli. Briefly: Activity of aqueous compositions on protozoa. The following applies: aqueous composition (100 g) containing 10 g active agent.
Data set [5] deals with Trychophyton Mentagrophytes. Briefly: Activity of aqueous compositions on fungus. The following applies: aqueous composition (100 g) containing 10 g active agent.
Source text: as §2
In the next data set the test system is Microsporum audovini. Briefly: Activity of aqueous compositions on fungus. The following applies: aqueous composition (100 g) containing 10 g active agent.
A further data set has as its system Epidermophyton flocosum. Briefly: Activity of aqueous compositions on fungus. The following applies: aqueous composition (100 g) containing 10 g active agent.
The next data set has as its system Enterobius vermicularis. Briefly: Activity of aqueous compositions on helminths. The following applies: aqueous composition (100 g) containing 10 g active agent.
The next data set has as its system Ascaris lumbricoides. Briefly: Activity of aqueous compositions on helminths. The following applies: aqueous composition (100 g) containing 10 g active agent.
A further data set deals with Necator americanus. Briefly: Activity of aqueous compositions on helminths. The following applies: aqueous composition (100 g) containing 10 g active agent.
In the next data set the test system is Anycylosloma duodenale. Briefly: Activity of aqueous compositions on helminths. The following applies: aqueous composition (100 g) containing 10 g active agent.
Another data set concerns Trichuris trichiura. The data set is described as follows: Activity of aqueous compositions on helminths. As to conditions: aqueous composition (100 g) containing 10 g active agent.

In brackets after ≈: the same amount, converted by molar mass. Where two headings read alike, the source gives them in different places. Where only a bound is given, the exact number is not on record here.

Source text for Anycylosloma duodenale: as §2
Source text for Ascaris lumbricoides: as §2
Source text for Bacceroides species: as §2
Source text for Balancidium coli: as §2
Source text for Bladtocystis hominis: as §2
Source text for Candida Albicans: as §2
Source text for Clostridum species: as §2
Source text for Cryptosporidium parvum: as §2
Source text for Diencamoeba fragilis: as §2
Source text for Encamoeba dispar: as §2
Source text for Encamoeba histolytica: as §2
Source text for Endolimax nana: as §2
Source text for Entamoeba coli: as §2
Source text for Enterobius vermicularis: as §2
Source text for Enterocytozoon bieneusi: as §2
Source text for Epidermophyton flocosum: as §2
Source text for Escherichia coli: as §2
Source text for Fusobacterium SPP: as §2
Source text for Giarda lamblia: as §2
Source text for Hymenolepis nana: as §2
Source text for Isospora belli: as §2
Source text for Microsporum audovini: as §2
Source text for Necator americanus: as §2
Source text for Peptococcus species: as §2
Source text for Peptostreptococcus SPP: as §2
Source text for Protens vulgaris: as §2
Source text for Septata intestinalis: as §2
Source text for Staphylococcus aureus: as §2
Source text for Taenia saginata: as §2
Source text for Taenia solium: as §2
Source text for Trichomonas intestinalis: as §2
Source text for Trichuris trichiura: as §2

In the case of `O=C(Nc1ncc([N+](=O)[O-])s1)c1ccccc1O` [Compound A, 2-(hydroxy)-N-(5-nitro-2-thiazolyl) benzamide], the onset of action entry in the data set on Trichomonas vaginalis [1] (in vitro studies) is “substantially immediate action”. Besides, in the data set with Trichomonas vaginalis [1], the MIC lay within 1 to 1.25 µg/mL (≈ 3.77 to 4.71 µM). Moreover, in the data set with HBV, the “selective index SI” value was “higher than 500” and the EC50 worked out at 1.8 ± 0.1 µg/mL (≈ 6.79 µM). In [2], the CC50 at 9 days is > 1000 µg/mL.

With `CC(=O)Oc1ccccc1C(=O)Nc1ncc([N+](=O)[O-])s1` [Compound B, 2-(acetolyloxy)-N-(5-nitro 2-thiazolyl) benzamide], in the data set with Trichomonas vaginalis [1], the MIC lay in the range of 0.5 to 1.25 µg/mL (≈ 1.63 to 4.07 µM).

Take `CCCSc1ccc2nc(NC(=O)OC)[nH]c2c1` [Compound P3, Albendazole]: the ACTIVITY result in the data set with Trichomonas vaginalis [3], in the data set with Trichomonas intestinalis, in the data set with Encamoeba histolytica, in the data set with Encamoeba dispar, with Entamoeba coli and in the data set on Endolimax nana was “No” throughout. Also, the ACTIVITY entry in the data set on Balancidium coli, with Diencamoeba fragilis, in the data set with Giarda lamblia, in the data set with Cryptosporidium parvum, in the data set with Bladtocystis hominis and in the data set on Enterocytozoon bieneusi was “No” throughout. Moreover, the ACTIVITY entry (in the data set on Septata intestinalis; in data set [4]; in the data set on Taenia saginata; in the data set with Taenia solium; in the data set on Hymenolepis nana; with Staphylococcus aureus) was “No” throughout. Further, the ACTIVITY result in the data set on Escherichia coli, in the data set on Protens vulgaris, in the data set on Bacceroides species, with Peptococcus species, in the data set on Peptostreptococcus SPP and with Fusobacterium SPP was “No” throughout. The ACTIVITY entry in the data set with Candida Albicans and with Clostridum species was “No” throughout.

For `COC(=O)Nc1nc2ccc(C(=O)c3ccccc3)cc2[nH]1` [Compound P4, Mebendazole], the ACTIVITY entry in the data set with Trichomonas vaginalis [3], with Trichomonas intestinalis, in the data set on Encamoeba histolytica, in the data set with Encamoeba dispar, in the data set with Entamoeba coli and in the data set on Endolimax nana was “No” throughout. Besides, the ACTIVITY entry in the data set on Balancidium coli, in the data set with Diencamoeba fragilis, in the data set with Giarda lamblia, in the data set on Isospora belli, in the data set on Cryptosporidium parvum and with Bladtocystis hominis was “No” throughout. For the same compound, the ACTIVITY entry (in the data set on Enterocytozoon bieneusi; with Septata intestinalis; in data set [4]; in the data set with Taenia saginata; with Taenia solium; in the data set with Hymenolepis nana) was “No” in each case. The ACTIVITY entry in the data set on Staphylococcus aureus, in the data set with Escherichia coli, in the data set on Protens vulgaris, with Bacceroides species, in the data set on Peptococcus species and in the data set on Peptostreptococcus SPP was “No” throughout. Moreover, the ACTIVITY result (with Fusobacterium SPP; in the data set with Candida Albicans; in data set [5]; in the data set with Microsporum audovini; with Epidermophyton flocosum; with Clostridum species) was “No” in each case.

Take `Cc1ncc([N+](=O)[O-])n1CCO` [Compound P5, Metronidazole]: the ACTIVITY entry in the data set with Cryptosporidium parvum, in the data set on Bladtocystis hominis, in the data set with Enterocytozoon bieneusi, with Septata intestinalis, with Enterobius vermicularis and in the data set with Ascaris lumbricoides was “No” in each case. Further, the ACTIVITY result (in the data set on Necator americanus; in the data set on Anycylosloma duodenale; with Trichuris trichiura; in [4]; in the data set on Taenia saginata; in the data set with Taenia solium) was “No” each time. Moreover, the ACTIVITY result (in the data set on Hymenolepis nana; in the data set with Staphylococcus aureus; in the data set with Escherichia coli; in the data set on Protens vulgaris; in the data set on Candida Albicans; in data set [5]) was “No” in each case. Moreover, the ACTIVITY entry with Microsporum audovini and in the data set with Epidermophyton flocosum was “No” in each case.

Consider `Nc1ccn([C@H]2CC[C@@H](CO)O2)c(=O)n1` [Zalcitabine], for which, in the data set on HBV, the “selective index SI” value is reported as “about 145”. The EC50 with HBV (HBV replication in 2.2.15 cells, 9 day treatment) worked out at 1.8 ± 0.2 µg/mL (≈ 8.52 µM). The CC50 at 9 days in [2] was 261 ± 24 µg/mL (≈ 1240 µM).

These data come from patent publication EP0755386B1, “BENZAMIDE DERIVATIVE, COMPOSITIONS CONTAINING SAID DERIVATIVE AND USE THEREOF” (Romark Laboratories, L.C., priority 1994, dated 1995).
